From ChEMBL document CHEMBL2331180, “Synthetic glycolipids for glioma growth inhibition developed from neurostatin and NF115 compound” (2013) come the findings set out here.

One test has as its system C6. Description: Antitumor activity against rat C6 cells transplanted to rat assessed as reduction in tumor growth at 8 mg/kg, intra-tumor treated after 1 week of tumor injection measured up to 15 days relative to untreated control. The class given is functional, organism-based. Also on record: dose 8 mg/kg.
The nature of test [1]: Antiproliferative activity against human […] cells assessed as inhibitory activity measured after 36 hrs by [3H]thymidine incorporation assay. It is filed as functional. The settings on record: read-out: ID50 (the source's name).
A short description of test [2]: Antiproliferative activity against human […] cells assessed as Rho GDP dissociation inhibitor (GDI) alpha gene repression at IC50 concentration after 24 hrs by microarray analysis relative to control. The class given is functional.
A short description of test [3]: Antiproliferative activity against human […] cells assessed as Tumor protein p53 gene repression at IC50 concentration after 24 hrs by microarray analysis relative to control. The class given is functional.
The nature of test [4]: Antiproliferative activity against human […] cells assessed as Human Bcl-x beta gene repression at IC50 concentration after 24 hrs by microarray analysis relative to control. The class given is functional.
Test [5] is described as follows: Antiproliferative activity against human […] cells assessed as Solute carrier family 4, anion exchanger, member 2 (erythrocyte membrane protein band 3-like 1) gene repression at IC50 concentration after 24 hrs by microarray analysis relative to control. It is filed as functional.
The nature of test [6]: Antiproliferative activity against human […] cells assessed as Human epsilon 14-3-3 protein gene repression at IC50 concentration after 24 hrs by microarray analysis relative to control. The class given is functional.

Calls of active or inactive are those of the source. The calls are words filed in the database; no cut-off is given here.

Take `CCCCCCCCCCCCCCCCO[C@H]1O[C@H](COCC(O)CO)[C@@H](O)[C@H](O)[C@H]1NC(=O)CCCC` (some centres not stated): in the test on C6, the result was inactive. Besides, the IC50 in test [1] worked out at 4.6 µM.

On to `CCCCCCCCCCCCCCCCO[C@H]1O[C@H](COCC(CO)(CO)COS(=O)(=O)O)[C@@H](O)[C@H](O)[C@H]1NC(=O)CCCC`, for which the result in the test with C6 was Active. The IC50 in test [1] amounted to 3.2 µM.

Take `CCCCCCCCCCCCCCCCO[C@H]1O[C@H](CO)[C@@H](O)[C@H](O)[C@H]1NC(C)=O`: the outcome with C6 was inactive. Moreover, in test [1], the IC50 came to 13 µM.

Regarding `CCCCCCCCO[C@H]1O[C@H](COCC(CO)(CO)CO)[C@@H](O)[C@H](O)[C@H]1NC(C)=O`, the “fold change (FC)” value in test [2] worked out at 0.3; in test [3], 0.5; in test [4], 0.3; in test [5], 0.7; in test [6] it was 0.5. The IC50 in test [1] worked out at 180 µM.
